Measured values reported in patent US20210393742A1, “LONG-ACTING INTERLEUKIN-15 RECEPTOR AGONIST IN COMBINATION WITH ANOTHER PHARMACOLOGICALLY ACTIVE AGENT” (Nektar Therapeutics, priority 2018, published 2021).

Columns and labels:
[1] = tested on: human multiple myeloma RPMI-8226 cells; assay: NK cell cytotoxicity (ADCC) against daratumumab pre-coated RPMI-8226 cells (Example 9); assay type: cell-based; conditions: NK cells primed with 1000 ng/mL overnight; targets pre-coated with daratumumab 100 ng/mL; E:T 10:1, 3 hr
Description: Human NK cells were magnetically sorted from normal donor PBMCs using negative selection. NK cells were seeded in a 96-well U-bottom plate at a density of 400,000 cells/well. NK cells were stimulated with 1000 ng/mL of a long-acting IL-15 receptor agonist (mono(mPEG-butanamide)IL-15) (+) or left unstimulated (−) in complete RPMI-1640 media supplemented with 10% fetal bovine serum (FBS) and 1% antibiotic/antimycotic overnight at 37° C. in 5% CO2.
The human multiple myeloma RPMI-8226 cells (ATCC #CCL-155) were washed in PBS and stained with 0.15 μM CFSE for 5 min at 37° C. The tumor cells were pre-coated with 100 ng/mL daratumumab (+) for 1 hr at 37° C. where indicated. The stimulated NK cells (effector cells) and the pre-coated CFSE-labeled tumor cells (target cells) were co-cultured in an E:T ratio of 10:1 for 3 hr at 37° C. in 5% CO2. Following incubation, cells were washed in flow staining buffer, Fc-blocked for 15 min at 4° C., and surface-stained (CD45, CD56, CD3-fluorescently conjugated antibodies). The cells were washed in PBS and incubated in 7-aminoactinomycin (7-AAD) viability stain for 30 minutes at 4° C. before acquiring for flow cytometric analysis using a Fortessa (BD). The percentage of 7-AAD+CFSE+ target cells from total cell population is the percentage for dead tumor cells.

Daudi B cell lymphoma = assay: Daudi cell counts in bone marrow, low and high doses (Example 14); assay type: in vivo, mice; conditions: day 24, single agent
Description: SCID mice (N=6/group) were intravenously inoculated with 10 million Daudi cells on Day 0 and treated with a single dose of a lower or higher dose of daratumumab (0.05 mg/kg or 5 mg/kg IP, 14 days following Daudi cell inoculation) and two doses of either lower or higher dose mono(methoxyPEG-N-butanamide)interleukin-15 (compound 1) (0.03 mg/kg or 0.6 mg/kg intravenously, one dose at each of 14 and 21 days after inoculation). Mice were also treated with the single agent therapies: daratumumab (0.05 mg/kg or 5 mg/kg IP, 14 days following Daudi cell inoculation) or two doses of mono(methoxyPEG-N-butanamide)40 kD interleukin-15 (compound 1) (0.03 mg/kg or 0.6 mg/kg intravenously, 14 and 21 days after inoculation). Daudi cell numbers in the bone marrow were assessed three days following the second dose of mono(methoxyPEG-N-butanamide)40 kD interleukin-15 (day 24) by flow cytometry as shown in FIGS. 17A and 17B.

KHYG-1 cells = assay: KHYG-1 cell proliferation, CellTiter-Glo 2.0 (Example 7); assay type: cell-based, human; conditions: 48 hours
Description: KHYG-1 cells were cultured in RPMI-1640 medium supplemented with 20% FBS, 2 mM L-glutamine, and 20 ng/mL IL-2 (Complete growth medium) in a humidified incubator at 37° C. and 5% CO2.
One day prior to treatment with test compounds, cells were seeded at a density of 500,000 viable cells/ml in Complete growth medium and incubated overnight under normal growth conditions. On the day of the assay, KHYG-1 cells were washed 3 times with DPBS, resuspended in assay medium (RPMI-1640 medium supplemented with 20% FBS, 2 mM L-glutamine), and incubated for 4-5 hours at 37° C., 5% CO2. Cells were adjusted to the appropriate density (8×10^5 cells/mL) in assay medium and 50,000 cells/well were aliquoted into wells of a 96-well plate (View-Plate 96, Perkin-Elmer).
Stimulation of KHYG-1 cells was initiated by the transfer of IL-15 or a long-acting IL-15 receptor agonist (mono(mPEG-butanamide)IL-15) to duplicate wells containing cells, followed by 48 hours incubation at 37° C., 5% CO2.
Cell growth in each well was measured by monitoring ATP levels using CellTiter-Glo 2.0, following the manufacturer's instructions. The effect of the long-acting IL-15 receptor agonist on KHYG-1 cell proliferation was compared to IL-15 following 48-hour treatment using CellTiter-Glo 2.0 with the results shown in FIG. 10B.

NK cells [2] = assay: Granzyme B expression per cell in bone marrow NK cells of Daudi lymphoma bearing mice (Example 11); assay type: in vivo; conditions: bone marrow day 24; Conjugate 1 0.3 mg/kg; antibody 0.5 mg/kg
Description: (§1) Balb/c mice bearing Daudi B cell lymphoma tumors in the bone marrow (n=6/group) were intraperitoneally administered a single 0.5 mg/kg dose of the human CD38 protein targeting clinical antibody daratumumab (DARZALEX®), Janssen Biotech) or a nonspecific control antibody with a matching isotype on day 14 after Daudi cell intravenous inoculation. Additional groups were treated with (i) mono(mPEG-N-butanamide)40 kD interleukin-15 (Conjugate 1) administered subcutaneously at a dose of 0.3 mg/kg as a single agent on days 14 and 21 after Daudi cell inoculation, or (ii) a combination treatment of Conjugate 1 administered subcutaneously at doses of 0.03 mg/kg or 0.3 mg/kg on days 14 and 21 after Daudi cell inoculation and daratumumab administered intraperitoneally at a dose of 0.5 mg/kg on day 14 after Daudi cell inoculation.
(§2) Three days following the second Conjugate 1 administration (day 24 after Daudi inoculation), bone marrow was collected and the NK cell fraction was measured by flow cytometry in total bone marrow.

NK cells [3] = assay: NKG2A and NKG2D surface expression on bone marrow NK cells of Daudi lymphoma bearing mice (Example 4); assay type: in vivo; conditions: bone marrow day 24; Conjugate 1 0.3 mg/kg SC days 14 and 21; antibody 0.5 mg/kg IP day 14
Description: as §1, with “(DARZALEX®,” for “(DARZALEX®),”, “administered mono(methoxyPEG-N-butanamide)40” for “treated with (i) mono(mPEG-N-butanamide)40”, “1)” for “1) administered”, “administered” for “(ii)”
as §2, with “marrow. Expression of the cell surface activating receptor NKG2D and the inhibitory checkpoint receptor NKG2A are shown in FIGS. 7A and 7B, respectively.” for “marrow.”

## mono(methoxyPEG-N-butanamide)40 kD interleukin-15 [Conjugate 1]
[1]
  ADCC, % 7-AAD+ target cells: enhanced ADCC of daratumumab pre-coated multiple myeloma cells
Daudi B cell lymphoma; high dose (daratumumab 5 mg/kg; compound 1 0.6 mg/kg)
  intra-bone marrow tumor cells depleted: 69%
Daudi B cell lymphoma; low dose (daratumumab 0.05 mg/kg; compound 1 0.03 mg/kg)
  intra-bone marrow tumor cells depleted: 42%
KHYG-1 cells
  maximal proliferative response: comparable to the response produced by IL-15
NK cells [2]
  Granzyme B mean fluorescence intensity (MFI mean value): 2649
  Relative Granzyme B expression compared to untreated condition: 6.7x increase
NK cells [3]
  % NK cells expressing NKG2A (mean, n = 6): 73.70%
  % NK cells expressing NKG2D (mean, n = 6): 2.157%
